Experimental data: ChEMBL document CHEMBL1158316, “Modulation of lipoxygenase activity by bacterial hopanoids” (J Nat Prod, 1997)
Calls of active or inactive are those of the source. No cut-off for these calls is given here.

Key:
Glycine max [1] = experiment: Inhibition of soybean 15-lipoxygenase assessed as rate of disappearance of dissolved oxygen at 25 uM relative to control; design: scale not given: the % may be the effect or the level left
[2] = target: T1, Polyunsaturated fatty acid 5-lipoxygenase (Homo sapiens) (UniProt P09917); experiment: Inhibition of human recombinant 5-lipoxygenase assessed as rate of disappearance of dissolved oxygen at 25 uM relative to control; design: scale not given: the % may be the effect or the level left
T1 sequence (whole entry): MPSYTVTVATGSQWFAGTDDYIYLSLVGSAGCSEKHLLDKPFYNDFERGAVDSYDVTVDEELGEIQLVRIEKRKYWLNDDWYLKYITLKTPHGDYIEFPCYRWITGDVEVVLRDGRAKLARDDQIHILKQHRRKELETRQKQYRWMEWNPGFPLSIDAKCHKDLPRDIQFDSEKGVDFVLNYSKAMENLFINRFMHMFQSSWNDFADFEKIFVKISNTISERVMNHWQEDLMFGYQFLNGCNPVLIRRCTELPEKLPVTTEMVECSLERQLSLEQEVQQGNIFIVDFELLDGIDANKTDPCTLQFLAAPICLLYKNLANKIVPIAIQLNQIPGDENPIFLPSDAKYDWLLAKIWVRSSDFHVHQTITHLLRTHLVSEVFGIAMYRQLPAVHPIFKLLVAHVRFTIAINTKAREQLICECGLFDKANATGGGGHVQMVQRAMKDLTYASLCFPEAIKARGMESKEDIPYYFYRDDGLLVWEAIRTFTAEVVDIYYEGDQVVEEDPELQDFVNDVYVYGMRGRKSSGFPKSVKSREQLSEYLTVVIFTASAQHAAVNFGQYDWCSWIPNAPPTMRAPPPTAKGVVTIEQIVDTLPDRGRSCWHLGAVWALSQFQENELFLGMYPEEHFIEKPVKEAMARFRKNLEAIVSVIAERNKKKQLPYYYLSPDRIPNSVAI

Glycine max [3] = experiment: Inhibition of soybean 15-lipoxygenase assessed as rate of disappearance of dissolved oxygen at 12.5 uM relative to control; design: scale not given: the % may be the effect or the level left
Glycine max [4] = experiment: Inhibition of soybean 15-lipoxygenase assessed as rate of disappearance of dissolved oxygen at 6.75 uM relative to control; design: scale not given: the % may be the effect or the level left
[5] = target: T1, Polyunsaturated fatty acid 5-lipoxygenase (Homo sapiens); experiment: Inhibition of human recombinant 5-lipoxygenase assessed as rate of disappearance of dissolved oxygen at 50 uM relative to control; design: scale not given: the % may be the effect or the level left
[6] = Inhibition of cyclooxygenase assessed as rate of disappearance of dissolved oxygen at 25 uM relative to control; design: scale not given: the % may be the effect or the level left
[7] = (§1) Inhibition of soybean 15-lipoxygenase; design: species or system Glycine max
Glycine max [8] = experiment: Inhibition of soybean 15-lipoxygenase assessed as rate of disappearance of dissolved oxygen at 50 uM relative to control; design: scale not given: the % may be the effect or the level left
Glycine max [9] = experiment: Inhibition of soybean 15-lipoxygenase assessed as rate of disappearance of dissolved oxygen at 100 uM relative to control; design: scale not given: the % may be the effect or the level left
[10] = Inhibition of cyclooxygenase assessed as rate of disappearance of dissolved oxygen at 50 uM relative to control; design: scale not given: the % may be the effect or the level left
[11] = Inhibition of cyclooxygenase assessed as rate of disappearance of dissolved oxygen at 2.4 uM relative to control; design: scale not given: the % may be the effect or the level left
Glycine max [12] = experiment: as §1

O=C1CCN(c2ccccc2)N1
Activity (Glycine max [1]): 34%
Activity [2]: 55%

C[C@H](CC[C@@H](O)[C@@H](O)[C@@H](O)CO)[C@H]1CC[C@]2(C)[C@H]3CC[C@@H]4[C@@]5(C)CCCC(C)(C)[C@@H]5CC[C@@]4(C)[C@]3(C)CC[C@@H]12 [TETRAHYDROXYBACTERIOHOPANE]
Activity (Glycine max [3]): 48%
Activity (Glycine max [1]): 15%
Activity (Glycine max [4]): 68%
Activity [5]: 97%
Activity [6]: 102%
IC50 [7]: 10 µM
Activity (Glycine max [8]): 4%
Activity (Glycine max [9]): 11%
Activity [2]: 98%
Activity [10]: 103%

C[C@H](CC[C@@H](O)[C@@H](O)[C@@H](O)CO[C@H]1[C@H](N)[C@@H](O)[C@H](O)[C@@]1(O)CO)[C@H]1CC[C@]2(C)[C@H]3CC[C@@H]4[C@@]5(C)CCCC(C)(C)[C@@H]5CC[C@@]4(C)[C@]3(C)CC[C@@H]12
Activity (Glycine max [1]): 151%
Activity (Glycine max [8]): 250%

COc1ccc2c(c1)c(CC(=O)O)c(C)n2C(=O)c1ccc(Cl)cc1
Activity [11]: 7%

CC(=O)OC[C@H](OC(C)=O)[C@H](OC(C)=O)[C@@H](CC[C@@H](C)[C@H]1CC[C@]2(C)[C@H]3CC[C@@H]4[C@@]5(C)CCCC(C)(C)[C@@H]5CC[C@@]4(C)[C@]3(C)CC[C@@H]12)OC(C)=O
Activity (Glycine max [1]): 89%
Activity (Glycine max [12]): inactive
Activity (Glycine max [8]): 114%

C[C@H](CC[C@@H](O)[C@@H](O)[C@@H](O)CO[C@@H]1O[C@H](CO)[C@@H](O)[C@H](O)[C@H]1N)[C@H]1CC[C@]2(C)[C@H]3CC[C@@H]4[C@@]5(C)CCCC(C)(C)[C@@H]5CC[C@@]4(C)[C@]3(C)CC[C@@H]12
Activity (Glycine max [1]): 172%
Activity (Glycine max [8]): 188%
